Assay results: patent publication US20240174638A1, “HETEROARYL DERIVATIVES AS APELIN RECEPTOR AGONISTS” (RESEARCH TRIANGLE INSTITUTE, priority 2021, published 2024)
Like-named read-outs stand apart in the source and are kept apart here.

Tests used:
[1] = Plasma and tissue pharmacokinetics following a single oral administration in male SD rat; type: in vivo
Method: Assay: Plasma and Tissue Pharmacokinetics of Example 22 Following a Single Oral Administration in Male SD Rat
Preparation of PO (10 mg/kg, 10 mL/kg) Dosing
1 mg/mL solution of 0.5% (w/v) CMC-Na, 0.1% (v/v) Tween 80 in Milli-Q Water.
Dissolved 29.68 mg of EXAMPLE 22 in 29.637 mL of 0.5% (w/v) CMC-Na, 0.1% (v/v). Tween 80 in Milli-Q Water with vortexing and sonicate to obtain a solution.
(§1) The desired serial concentrations of working solutions were achieved by diluting stock solution of analyte with 50% acetonitrile in water solution. 5 μL of working solutions (10, 20, 50, 100, 500, 1000, 5000, 10000 ng/mL) were added to 50 μL of the blank SD Rat plasma to achieve calibration standards of 1˜1000 ng/mL (1, 2, 5, 10, 50, 100, 500, 1000 ng/mL) in a total volume of 55 μL. Four quality control samples at 2 ng/mL, 5 ng/mL, 50 ng/mL and 800 ng/mL for plasma were prepared independently of those used for the calibration curves. These QC samples were prepared on the day of analysis in the same way as calibration standards.
55 μL standards, 55 μL QC samples and 55 μL unknown samples (50 μL plasma with 5 μL blank solution) were added to 200 μL of acetonitrile containing IS mixture for precipitating protein respectively. Then the samples were vortexed for 30 s. After centrifugation at 4 degree Celsius, 3900 rpm for 15 min, the supernatant was diluted 3 times with water. 20 μL of diluted supernatant was injected into the LC/MS/MS system for quantitative analysis.
as §1, with “Rat tissue (lung, brain, kidney, muscle/skeletal, spleen, heart and skin) homogenous” for “Rat plasma”, “for tissue” for “for plasma”
50 μL standards, 50 μL QC samples and 50 μL unknown samples (50 μL Tissue with 5 μL blank solution) were added to 200 μL of acetonitrile containing IS mixture for precipitating protein respectively. Then the samples were vortexed for 30 s. After centrifugation at 4 degree Celsius, 3900 rpm for 15 min, the supernatant was diluted 3 times with water. 50 μL of heart diluted supernatant and 20 μL of other tissue diluted supernatant was injected into the LC/MS/MS system for quantitative analysis.

in vitro = conditions: human

## O=C(O)C[C@H](CCN1CCCC(F)(F)C1)NC(=O)c1cc(-c2ccccc2C(F)(F)F)n(-c2nccs2)n1 [Example 22, (3S)-5-(3,3-difluoropiperidin-1-yl)-3-{[1-(1,3-thiazol-2-yl)-5-[2-(trifluoromethyl)phenyl]-1H-pyrazol-3-yl]formamido}pentanoic acid]
[1]; 4 h post dose
  4 h Conc., Brain (mean): BLQ
[1]; 24 h post dose
  24 h Conc., Brain (mean): BLQ
  24 h Conc., Heart (mean): BLQ
  24 h Conc., Muscle (mean): BLQ
  24 h Conc., Skin (mean): BLQ
  24 h Conc., Spleen (mean): BLQ
[1]; heart, 10 mg/kg, 4 h post dose, read-out: 4 h Conc., Heart (mean)
  concentration at 4 h: 28.8 ng/g
[1]; heart, 10 mg/kg, 4 h post dose, read-out: 4 h Tissue:Plasma Ratio, Heart
  Kp at 4 h: 0.28
[1]; kidney (to plasma), 10 mg/kg, 24 h post dose, read-out: 24 h Tissue:Plasma Ratio, Kidney
  Kp at 24 h: 3.47
[1]; kidney, 10 mg/kg, 4 h post dose, read-out: 4 h Conc., Kidney (mean)
  concentration at 4 h: 305 ng/g
[1]; kidney, 10 mg/kg, 4 h post dose, read-out: 4 h Tissue:Plasma Ratio, Kidney
  Kp at 4 h: 3.11
[1]; kidney, 10 mg/kg, 24 h post dose, read-out: 24 h Conc., Kidney (mean)
  concentration at 24 h: 22.9 ng/g
[1]; lung, 10 mg/kg, 4 h post dose, read-out: 4 h Conc., Lung (mean)
  concentration at 4 h: 40 ng/g
[1]; lung, 10 mg/kg, 4 h post dose, read-out: 4 h Tissue:Plasma Ratio, Lung
  Kp at 4 h: 0.39
[1]; muscle (skeletal), 10 mg/kg, 4 h post dose, read-out: 4 h Conc., Muscle (mean)
  concentration at 4 h: 7.3 ng/g
[1]; muscle (skeletal), 10 mg/kg, 4 h post dose, read-out: 4 h Tissue:Plasma Ratio, Muscle
  Kp at 4 h: 0.07
[1]; plasma, 10 mg/kg, 4 h post dose, read-out: 4 h Conc., Plasma (mean)
  concentration at 4 h: 102 ng/mL
[1]; plasma, 10 mg/kg, 24 h post dose, read-out: 24 h Conc., Plasma (mean)
  concentration at 24 h: 6.6 ng/mL
[1]; skin, 10 mg/kg, 4 h post dose, read-out: 4 h Conc., Skin (mean)
  concentration at 4 h: 19.3 ng/g
[1]; skin, 10 mg/kg, 4 h post dose, read-out: 4 h Tissue:Plasma Ratio, Skin
  Kp at 4 h: 0.19
[1]; spleen, 10 mg/kg, 4 h post dose, read-out: 4 h Conc., Spleen (mean)
  concentration at 4 h: 14 ng/g
[1]; spleen, 10 mg/kg, 4 h post dose, read-out: 4 h Tissue:Plasma Ratio, Spleen
  Kp at 4 h: 0.14
In vitro
  recovery at 6 h, 1 μM: 74.4%
